Test system: dogs subject to food allergies
Assay: Owner-marked itching scores of dogs subject to food allergies fed with the dog food
Assay type: in vivo
Conditions: case No.1, before feeding with the dog food
Protocol: A dog food (dog food for food allergy) composed of raw materials as listed in Table 3 and Table 4 below was prepared according to the above Example 1. Dogs subject to food allergies were fed with this dog food and then the itching scores of these dogs were determined.
The following 2 cases are described in detail. (a) Detailed description of case No.1 (i) Changes (−1) in itching scores

For C[C@]12C=CC(=O)C=C1CC[C@@H]1[C@@H]2[C@@H](O)C[C@@]2(C)[C@H]1CC[C@]2(O)C(=O)CO [predonine], the “itching on administration of steroid drug” value was “further suppressed”.
